# pEC50: −log10 of the molar value.
# System: HBV
# Test: Anti-HBV assay (inhibition of HBV replication in HepG2.cl42 cells, HBV DNA by qPCR)
# Type: cell-based, HBV ayw strain
# Conditions: Hepatitis B virus, 96 h, treated four days, HBV DNA quantified by real time PCR, read-out: HBsAg EC50
row,Structure (SMILES),pEC50
1,C[C@H]1c2c(noc2-c2cnn(C)c2)CCN1C(=O)Nc1cc(F)c(F)c(F)c1 [Compound 32],≤ 6.00
2,"Cc1cc(-c2onc3c2[C@H](C)N(C(=O)Nc2cc(F)c(F)c(F)c2)CC3)no1 [Compound 26, (S)-4-methyl-3-(5-methylisoxazol-3-yl)-N-(3,4,5-trifluorophenyl)-6,7-dihydroisoxazolo[4,3-c]pyridine-5(4H)-carboxamide]",≤ 6.00
3,"C[C@H]1Cc2noc(N3CCCOC3=O)c2CN1C(=O)Nc1cc(F)c(F)c(C(F)F)c1 [Compound 51, (S)—N-(3-(difluoromethyl)-4,5-difluorophenyl)-6-methyl-3-(2-oxo-1,3-oxazinan-3-yl)-6,7-dihydroisoxazolo[4,3-c]pyridine-5(4H)-carboxamide]",> 7.00
4,C[C@H]1Cc2noc(-c3ccc(Cl)cc3)c2CN1C(=O)Nc1cc(F)c(F)c(F)c1 [Compound 18],6.00 to 7.00
5,C[C@H]1Cc2noc(-c3cnn(C)c3)c2CN1C(=O)Nc1cc(F)c(F)c(F)c1 [Compound 31],6.00 to 7.00
6,"COc1ccc(-c2onc3c2CN(C(=O)Nc2cc(F)c(F)c(F)c2)[C@@H](C)C3)cc1 [Compound 9, (S)-3-(4-methoxyphenyl)-6-methyl-N-(3,4,5-trifluorophenyl)-6,7-dihydroisoxazolo[4,3-c]pyridine-5(4H)-carboxamide]",> 7.00
7,"C[C@H]1Cc2noc(N3CCCOC3=O)c2CN1C(=O)Nc1ccc(F)c(C(F)F)c1 [Compound 50, (S)—N-(3-(difluoromethyl)-4-fluorophenyl)-6-methyl-3-(2-oxo-1,3-oxazinan-3-yl)-6,7-dihydroisoxazolo[4,3-c]pyridine-5(4H)-carboxamide]",> 7.00
8,"O=C(Nc1cc(F)c(F)c(F)c1)N1CCc2noc(N3CCCC3=O)c2C1 [Compound 5.1, 3-(2-oxopyrrolidin-1-yl)-N-(3,4,5-trifluorophenyl)-6,7-dihydroisoxazolo[4,3-c]pyridine-5(4H)-carboxamide]",6.00 to 7.00
9,"C[C@H]1Cc2noc(N3CCC(C)(C)C3=O)c2CN1C(=O)Nc1cc(F)c(F)c(F)c1 [Compound 57, (S)-3-(3,3-dimethyl-2-oxopyrrolidin-1-yl)-6-methyl-N-(3,4,5-trifluorophenyl)-6,7-dihydroisoxazolo[4,3-c]pyridine-5(4H)-carboxamide]",> 7.00
10,Cc1nc(-c2onc3c2CN(C(=O)Nc2cc(F)c(F)c(F)c2)[C@@H](C)C3)c(C)o1 [Compound 39],6.00 to 7.00
11,"CC1Cc2noc(-c3ccc(F)cc3F)c2CN1C(=O)Nc1cc(F)c(F)c(F)c1 (stereo not shown) [Compound 3.1, 3-(2,4-difluorophenyl)-6-methyl-N-(3,4,5-trifluorophenyl)-6,7-dihydroisoxazolo[4,3-c]pyridine-5(4H)-carboxamide]",6.00 to 7.00
12,Cc1nc(-c2onc3c2[C@H](C)N(C(=O)Nc2cc(F)c(F)c(F)c2)CC3)c(C)o1 [Compound 40],≤ 6.00
13,"C[C@H]1Cc2noc(N3C(=O)CCC3=O)c2CN1C(=O)Nc1cc(F)c(F)c(F)c1 [Compound 60, (S)-3-(2,5-dioxopyrrolidin-1-yl)-6-methyl-N-(3,4,5-trifluorophenyl)-6,7-dihydroisoxazolo[4,3-c]pyridine-5(4H)-carboxamide]",≤ 6.00
14,"C[C@H]1Cc2noc(-c3ccc(F)cc3F)c2CN1C(=O)Nc1cc(F)c(F)c(F)c1 [Compound 3.1-I, (S)-3-(2,4-difluorophenyl)-6-methyl-N-(3,4,5-trifluorophenyl)-6,7-dihydroisoxazolo[4,3-c]pyridine-5(4H)-carboxamide]",> 7.00
15,C[C@H]1c2c(noc2-c2ccn(C)n2)CCN1C(=O)Nc1cc(F)c(F)c(F)c1 [Compound 34],≤ 6.00
16,Cc1nc(-c2onc3c2CN(C(=O)Nc2cc(F)c(F)c(F)c2)[C@@H](C)C3)co1 [Compound 35],6.00 to 7.00
17,Cc1ccc(-c2onc3c2CN(C(=O)Nc2cc(F)c(F)c(F)c2)[C@@H](C)C3)cc1 [Compound 11],6.00 to 7.00
18,"C[C@H]1Cc2noc(N3CCOC3=O)c2CN1C(=O)Nc1cc(F)c(F)c(F)c1 [Compound 55, (S)-6-methyl-3-(2-oxooxazolidin-3-yl)-N-(3,4,5-trifluorophenyl)-6,7-dihydroisoxazolo[4,3-c]pyridine-5(4H)-carboxamide]",6.00 to 7.00
19,"O=C(Nc1cc(F)c(F)c(F)c1)N1CCc2onc(-c3ccc(F)cc3F)c2C1 [Compound 7.1, 3-(2,4-difluorophenyl)-N-(3,4,5-trifluorophenyl)-6,7-dihydroisoxazolo[4,5-c]pyridine-5(4H)-carboxamide]",6.00 to 7.00
20,C[C@H]1Cc2noc(-c3ccc(F)cc3)c2CN1C(=O)Nc1cc(F)c(F)c(F)c1 [Compound 13],6.00 to 7.00
21,"C[C@H]1Cc2noc(N3CCOCC3)c2CN1C(=O)Nc1cc(F)c(F)c(F)c1 [Compound 59, (S)-6-methyl-3-morpholino-N-(3,4,5-trifluorophenyl)-6,7-dihydroisoxazolo[4,3-c]pyridine-5(4H)-carboxamide]",≤ 6.00
22,"C[C@H]1Cc2noc(N3CCCCC3=O)c2CN1C(=O)Nc1cc(F)c(F)c(F)c1 [Compound 46, (S)-6-methyl-3-(2-oxopiperidin-1-yl)-N-(3,4,5-trifluorophenyl)-6,7-dihydroisoxazolo[4,3-c]pyridine-5(4H)-carboxamide]",> 7.00
